US10111433B2 (priority 2014, dated 2018)
Where two headings read alike, the source gives them in different places.

Columns and labels:
Plasmopara viticola = test: Field activity against Plasmopara viticola on grapevine; format: in vivo; conditions: Table B2; A-1.2 22.5 gai/ha; bunches, ten days after sixth application
Excerpt: Merlot grapevines were cultivated in rows with 1 m between plants within the row, and 2 m spaces between rows. Treatment plots were defined with an 8 m^2 vertical area. The trial consisted of three replicates of the treatment list, with the positions of each treatment plot randomised within the replicate.
Test compounds were formulated and applied to the relevant treatment plots, using a backpack sprayer with a flat fan nozzle. The first application was made when the majority of plants were at growth stage BBCH 15 and following applications at 10-14 day intervals through to growth stage BBCH 79.
The first symptoms of the target pathogen Plasmopara viticola were observed between the second and third applications. Plants outside the trial area were inoculated to increase the disease pressure, but infection processes within the trial plots were natural. […]
Ten days after the sixth application, at growth stage BBCH 79, the fruit was assessed for infection by Plasmopara viticola. 50 bunches per plot were assessed, the scores given in table B2 are percent disease control relative to untreated, based on the mean percentage of bunches showing symptoms of infection across all three replicates of a treatment.

Phytophthora capsici = test: Activity against Phytophthora capsici, growth inhibition in nutrient broth (microtiter plate); format: cell-based; conditions: Phytophthora capsici, read-out: % disease control; for inhibition of growth at 6.25e-05 ppm: A-1.2 0.0000625 ppm; for inhibition of growth at 0.0005 ppm: A-1.2 0.0005000 ppm; for inhibition of growth at 3.9e-06 ppm: A-1.2 0.0000039 ppm; for inhibition of growth at 7.8e-06 ppm: A-1.2 0.0000078 ppm; for inhibition of growth at 1.56e-05 ppm: A-1.2 0.0000156 ppm; for inhibition of growth at 3.13e-05 ppm: A-1.2 0.0000313 ppm
Procedure: Conidia of the fungus from cryogenic storage are directly mixed into nutrient broth (PDB potato dextrose broth). After placing a (DMSO) solution of test compound into a microtiter plate (96-well format), the nutrient broth containing the fungal spores is added. […] Table B4 to B21 gives the mean percent control relative to untreated.

Phytophthora infestans [1] = format: in vivo; conditions: Table B3; A-1.2 15 gai/ha; leaf area, four days after final application
Phytophthora infestans [2] = format: in vivo

O=C(N[C@@H]1CCCc2ccccc21)c1cc(C2CCN(C(=O)Cn3nc(C(F)F)cc3C(F)F)CC2)ccn1 [Compound A-1.2, 1′-[2-(3,5-bis-difluoromethyl-pyrazol-1-yl)-acetyl]-1′,2′,3′,4′,5′,6′-hexahydro-[4,4′]bipyridinyl-2-carboxylic acid (R)-(1,2,3,4-tetrahydronaphthalen-1-yl)-amide]
% disease control relative to untreated (Plasmopara viticola): 87.3% | inhibition of growth at 6.25e-05 ppm (Phytophthora capsici; Table B4): 0% | inhibition of growth at 0.000125 ppm (Phytophthora capsici; Table B4, A-1.2 0.0001250 ppm): 32% | inhibition of growth at 0.00025 ppm (Phytophthora capsici; Table B4, A-1.2 0.0002500 ppm): 64% | inhibition of growth at 0.0005 ppm (Phytophthora capsici; Table B4): 76% | inhibition of growth at 2e-06 ppm (Phytophthora capsici; Table B5, A-1.2 0.0000020 ppm): 0% | inhibition of growth at 3.9e-06 ppm (Phytophthora capsici; Table B5): 0% | inhibition of growth at 7.8e-06 ppm (Phytophthora capsici; Table B5): 0% | inhibition of growth at 1.56e-05 ppm (Phytophthora capsici; Table B5): 0% | inhibition of growth at 3.13e-05 ppm (Phytophthora capsici; Table B5): 0% | inhibition of growth at 6.25e-05 ppm (Phytophthora capsici; Table B5): 47% | inhibition of growth at 6.25e-05 ppm (Phytophthora capsici; Table B6): 0% | inhibition of growth at 0.000125 ppm (Phytophthora capsici; Table B6, A-1.2 0.0001250 ppm): 40% | inhibition of growth at 0.00025 ppm (Phytophthora capsici; Table B6, A-1.2 0.0002500 ppm): 78% | inhibition of growth at 3.9e-06 ppm (Phytophthora capsici; Table B7): 0% | inhibition of growth at 7.8e-06 ppm (Phytophthora capsici; Table B7): 0% | inhibition of growth at 1.56e-05 ppm (Phytophthora capsici; Table B7): 0% | inhibition of growth at 3.13e-05 ppm (Phytophthora capsici; Table B7): 0% | inhibition of growth at 6.25e-05 ppm (Phytophthora capsici; Table B7): 38% | inhibition of growth at 0.000125 ppm (Phytophthora capsici; Table B7, A-1.2 0.0001250 ppm): 42% | inhibition of growth at 6.25e-05 ppm (Phytophthora capsici; Table B8): 3% | inhibition of growth at 0.000125 ppm (Phytophthora capsici; Table B8, A-1.2 0.0001250 ppm): 56% | inhibition of growth at 0.00025 ppm (Phytophthora capsici; Table B8, A-1.2 0.0002500 ppm): 69% | inhibition of growth at 6.25e-05 ppm (Phytophthora capsici; Table B9): 0% | inhibition of growth at 0.000125 ppm (Phytophthora capsici; Table B9, A-1.2 0.0001250 ppm): 47% | inhibition of growth at 6.25e-05 ppm (Phytophthora capsici; Table B10): 12% | inhibition of growth at 0.000125 ppm (Phytophthora capsici; Table B10, A-1.2 0.0001250 ppm): 62% | inhibition of growth at 6.25e-05 ppm (Phytophthora capsici; Table B11): 0% | inhibition of growth at 0.000125 ppm (Phytophthora capsici; Table B11, A-1.2 0.0001250 ppm): 55% | inhibition of growth at 0.00025 ppm (Phytophthora capsici; Table B11, A-1.2 0.0002500 ppm): 82% | inhibition of growth at 3.13e-05 ppm (Phytophthora capsici; Table B12): 0% | inhibition of growth at 6.25e-05 ppm (Phytophthora capsici; Table B12): 0% | inhibition of growth at 0.000125 ppm (Phytophthora capsici; Table B12, A-1.2 0.0001250 ppm): 57% | inhibition of growth at 0.00025 ppm (Phytophthora capsici; Table B12, A-1.2 0.0002500 ppm): 81% | inhibition of growth at 0.000125 ppm (Phytophthora capsici; Table B13, A-1.2 0.0001250 ppm): 46% | inhibition of growth at 0.00025 ppm (Phytophthora capsici; Table B13, A-1.2 0.0002500 ppm): 69% | inhibition of growth at 0.0005 ppm (Phytophthora capsici; Table B13): 84% | inhibition of growth at 1.56e-05 ppm (Phytophthora capsici; Table B14): 0% | inhibition of growth at 3.13e-05 ppm (Phytophthora capsici; Table B14): 0% | inhibition of growth at 6.25e-05 ppm (Phytophthora capsici; Table B14): 0% | inhibition of growth at 1.56e-05 ppm (Phytophthora capsici; Table B15): 0% | inhibition of growth at 3.13e-05 ppm (Phytophthora capsici; Table B15): 0% | inhibition of growth at 6.25e-05 ppm (Phytophthora capsici; Table B15): 0% | inhibition of growth at 0.000125 ppm (Phytophthora capsici; Table B15, A-1.2 0.0001250 ppm): 71% | inhibition of growth at 0.000125 ppm (Phytophthora capsici; Table B16, A-1.2 0.0001250 ppm): 54% | inhibition of growth at 6.25e-05 ppm (Phytophthora capsici; Table B17): 0% | inhibition of growth at 0.000125 ppm (Phytophthora capsici; Table B17, A-1.2 0.0001250 ppm): 67% | inhibition of growth at 0.00025 ppm (Phytophthora capsici; Table B17, A-1.2 0.0002500 ppm): 79% | inhibition of growth at 0.0005 ppm (Phytophthora capsici; Table B17): 82% | inhibition of growth at 7.8e-06 ppm (Phytophthora capsici; Table B18): 0% | inhibition of growth at 1.56e-05 ppm (Phytophthora capsici; Table B18): 0% | inhibition of growth at 3.13e-05 ppm (Phytophthora capsici; Table B18): 0% | inhibition of growth at 6.25e-05 ppm (Phytophthora capsici; Table B18): 0% | inhibition of growth at 0.000125 ppm (Phytophthora capsici; Table B18, A-1.2 0.0001250 ppm): 46% | inhibition of growth at 1.56e-05 ppm (Phytophthora capsici; Table B19): 0% | inhibition of growth at 3.13e-05 ppm (Phytophthora capsici; Table B19): 0% | inhibition of growth at 6.25e-05 ppm (Phytophthora capsici; Table B19): 0% | inhibition of growth at 0.000125 ppm (Phytophthora capsici; Table B19, A-1.2 0.0001250 ppm): 38% | inhibition of growth at 0.00025 ppm (Phytophthora capsici; Table B19, A-1.2 0.0002500 ppm): 81% | inhibition of growth at 6.25e-05 ppm (Phytophthora capsici; Table B20): 66% | inhibition of growth at 0.000125 ppm (Phytophthora capsici; Table B20, A-1.2 0.0001250 ppm): 83% | inhibition of growth at 6.3e-05 ppm (Phytophthora capsici; Table B21, A-1.2 0.000063 ppm): 0% | inhibition of growth at 0.000125 ppm (Phytophthora capsici; Table B21, A-1.2 0.000125 ppm): 69% | inhibition of growth at 0.00025 ppm (Phytophthora capsici; Table B21, A-1.2 0.000250 ppm): 78% | % disease control relative to untreated (Phytophthora infestans [1]): 64.8% | % disease control (Phytophthora infestans [2]; Table B1.1, A-1.2 0.02 ppm): 0% | % disease control (Phytophthora infestans [2]; Table B1.1, A-1.2 0.06 ppm): 14% | % disease control (Phytophthora infestans [2]; Table B1.2, A-1.2 0.06 ppm): 14% | % disease control (Phytophthora infestans [2]; Table B1.3, A-1.2 0.06 ppm): 14%
